Results published in PubChem BioAssay AID248 (DTP/NCI, 2004).
“And” between values parts separate entries of the source, which are not always exact repeats. Equal values may be shown once. Inconclusive results and toxic doses are left out.

System: L1210 leukemia ip in BDF1 mice, survival T/C
Experiment: NCI In Vivo Anticancer Drug Screen. Data for tumor model L1210 Leukemia (intraperitoneal) in B6D2F1 (BDF1) mice
Settings: endpoint: mean survival time, higher = longer survival
In short: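 Antitumor effect is assessed in tumor-bearing animals. Survival in the compound arm is compared with a vehicle-dosed control arm and expressed as their quotient.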

[1] = dose: 100.0 mg/kg/injection, schedule: Q04DX002 (ip), vehicle: gum acacia
[2] = dose: 200.0 mg/kg/injection, schedule: Q04DX002 (ip), vehicle: gum acacia
[3] = dose: 100.0 mg/kg/injection, schedule: Q04DX003 (ip), vehicle: saline with Tween-80
[4] = dose: 200.0 mg/kg/injection, schedule: Q04DX003 (ip), vehicle: saline with Tween-80
[5] = dose: 400.0 mg/kg/injection, schedule: Q04DX003 (ip), vehicle: saline with Tween-80
[6] = dose: 100.0 mg/kg/injection, schedule: Q01DX001 (ip), vehicle: saline
[7] = dose: 200.0 mg/kg/injection, schedule: Q01DX001 (ip), vehicle: saline
[8] = dose: 100.0 mg/kg/injection, schedule: Q04DX003 (ip), vehicle: Klucel (hydroxypropylcellulose) (HPC)
[9] = dose: 200.0 mg/kg/injection, schedule: Q04DX003 (ip), vehicle: Klucel (hydroxypropylcellulose) (HPC)
[10] = dose: 400.0 mg/kg/injection, schedule: Q04DX003 (ip), vehicle: Klucel (hydroxypropylcellulose) (HPC)
[11] = dose: 400.0 mg/kg/injection, schedule: Q01DX001 (ip), vehicle: saline
[12] = dose: 100.0 mg/kg/injection, schedule: Q01DX009 (ip), vehicle: Klucel (hydroxypropylcellulose) (HPC)
[13] = dose: 200.0 mg/kg/injection, schedule: Q01DX009 (ip), vehicle: Klucel (hydroxypropylcellulose) (HPC)
[14] = dose: 400.0 mg/kg/injection, schedule: Q01DX009 (ip), vehicle: Klucel (hydroxypropylcellulose) (HPC)
[15] = dose: 100.0 mg/kg/injection, schedule: Q01DX009 (ip), vehicle: saline
[16] = dose: 200.0 mg/kg/injection, schedule: Q01DX009 (ip), vehicle: saline
[17] = dose: 400.0 mg/kg/injection, schedule: Q01DX009 (ip), vehicle: saline

CCCCCCCCCCCCCCCC[N+](C)=C(SC)c1ccccc1OC
T/C (dose: 0.7 mg/kg/injection, schedule: Q01DX009 (ip), vehicle: Klucel (hydroxypropylcellulose) (HPC)): 101 % of control | T/C (dose: 1.5 mg/kg/injection, schedule: Q01DX009 (ip), vehicle: Klucel (hydroxypropylcellulose) (HPC)): 104 % of control | T/C (dose: 1.5 mg/kg/injection, schedule: Q04DX003 (ip), vehicle: Klucel (hydroxypropylcellulose) (HPC)): 95 % of control | T/C (dose: 3.0 mg/kg/injection, schedule: Q01DX009 (ip), vehicle: Klucel (hydroxypropylcellulose) (HPC)): 104 % of control | T/C (dose: 3.0 mg/kg/injection, schedule: Q04DX003 (ip), vehicle: Klucel (hydroxypropylcellulose) (HPC)): 97 % of control

Cc1cccnc1NC(=S)Nc1ccccc1Cl
T/C [1]: 88 % of control | T/C [2]: 98 % of control

O=C(O)c1ccccc1C(=O)c1ccccc1C(=O)O
T/C [3]: 102 % of control | T/C [4]: 98 % of control | T/C [5]: 102 % of control

CCCCNC(=O)CCl
T/C [6]: 96 % of control | T/C [7]: 113 % of control

CCOC(=O)C(CCC1=NC(C)(C)CC(C)O1)C(=O)OCC (centres undefined)
T/C [3]: 94 % of control | T/C [4]: 101 % of control | T/C [5]: 94 % of control

Cc1[nH]c(=O)[nH]c(=O)c1NCCO
T/C (dose: 100.0 mg/kg/injection, schedule: Q01DX009 (ip), vehicle: water): 91 % of control | T/C (dose: 100.0 mg/kg/injection, schedule: Q04DX003 (ip), vehicle: water): 101 % of control | T/C (dose: 200.0 mg/kg/injection, schedule: Q01DX009 (ip), vehicle: water): 96 % of control | T/C (dose: 200.0 mg/kg/injection, schedule: Q04DX003 (ip), vehicle: water): 103 % of control | T/C (dose: 400.0 mg/kg/injection, schedule: Q01DX009 (ip), vehicle: water): 102 % of control | T/C (dose: 400.0 mg/kg/injection, schedule: Q04DX003 (ip), vehicle: water): 103 % of control

O=c1c(-c2ccccc2)c(S)sc(S)c1-c1ccccc1
T/C [1]: 93 % of control | T/C [2]: 104 % of control | T/C (dose: 400.0 mg/kg/injection, schedule: Q04DX002 (ip), vehicle: gum acacia): 93 % of control

Nc1c(Cl)ncnc1Nc1cccc(C(F)(F)F)c1
T/C [8]: 92 % of control | T/C [9]: 97 % of control | T/C [10]: 104 % of control

Nc1ccc(OCC(=O)Nc2ccc(S(=O)(=O)F)cc2)cc1
T/C [6]: 101 % of control | T/C [7]: 103 % of control

CC(C)(C)COC(=O)C(C)(C)C
T/C [6]: 117 % of control | T/C [7]: 112 % of control | T/C [11]: 102 % of control

CC(C)(C)C(=O)C1C(=O)c2ccccc2C1=O
T/C (dose: 0.25 mg/kg/injection, schedule: Q01DX009 (ip), vehicle: Klucel (hydroxypropylcellulose) (HPC)): 101 % of control | T/C (dose: 0.25 mg/kg/injection, schedule: Q04DX003 (ip), vehicle: Klucel (hydroxypropylcellulose) (HPC)): 95 % of control | T/C (dose: 0.5 mg/kg/injection, schedule: Q01DX009 (ip), vehicle: Klucel (hydroxypropylcellulose) (HPC)): 95 % of control | T/C (dose: 0.5 mg/kg/injection, schedule: Q04DX003 (ip), vehicle: Klucel (hydroxypropylcellulose) (HPC)): 101 % of control | T/C (dose: 1.0 mg/kg/injection, schedule: Q01DX009 (ip), vehicle: Klucel (hydroxypropylcellulose) (HPC)): 104 % of control | T/C (dose: 1.0 mg/kg/injection, schedule: Q04DX003 (ip), vehicle: Klucel (hydroxypropylcellulose) (HPC)): 100 % of control

COc1cc(C)ccc1C1OC(=O)c2c1ccc(OC)c2OC (centres undefined)
T/C [6]: 97 % of control | T/C [7]: 101 % of control | T/C [11]: 92 % of control

COc1ccc(C(=O)/C=C/c2cccc(OCc3ccccc3)c2)cc1
T/C (dose: 25.0 mg/kg/injection, schedule: Q04DX002 (ip), vehicle: Klucel (hydroxypropylcellulose) (HPC)): 102 % of control | T/C (dose: 50.0 mg/kg/injection, schedule: Q04DX002 (ip), vehicle: Klucel (hydroxypropylcellulose) (HPC)): 91 % of control | T/C (dose: 100.0 mg/kg/injection, schedule: Q04DX002 (ip), vehicle: Klucel (hydroxypropylcellulose) (HPC)): 102 % of control | T/C (dose: 200.0 mg/kg/injection, schedule: Q04DX002 (ip), vehicle: Klucel (hydroxypropylcellulose) (HPC)): 92 % of control | T/C (dose: 400.0 mg/kg/injection, schedule: Q04DX002 (ip), vehicle: Klucel (hydroxypropylcellulose) (HPC)): 103 % of control

O=C(Nc1ccccc1C(F)(F)F)c1ccc(Cl)cc1
T/C [12]: 97 % of control | T/C [8]: 93 % of control | T/C [13]: 103 % of control | T/C [9]: 99 % of control | T/C [14]: 94 % of control | T/C [10]: 88 % of control

COc1ccc(C(=O)CCC(=O)O)c(C)c1
T/C [15]: 97 % of control | T/C [16]: 101 % of control | T/C [17]: 105 % of control

O=NN(CCF)C(=O)NC1CCSc2ccccc21 (centres undefined)
T/C (dose: 6.0 mg/kg/injection, schedule: Q01DX001 (ip), vehicle: other): 109 % of control | T/C (dose: 9.0 mg/kg/injection, schedule: Q01DX001 (ip), vehicle: other): 120 % of control | T/C (dose: 20.0 mg/kg/injection, schedule: Q01DX001 (ip), vehicle: other): 161 % of control | T/C (dose: 30.0 mg/kg/injection, schedule: Q01DX001 (ip), vehicle: other): 289 % of control

COc1cc(C2N(c3ccccc3)CCN2c2ccccc2)cc(OC)c1OC
T/C [12]: 97 % of control | T/C [8]: 90 % of control | T/C [9]: 93 % of control | T/C [14]: 94 % of control | T/C [10]: 95 % of control

CCCCCCCCN(C)N=Nc1ccccc1C(=O)O
T/C (dose: 12.5 mg/kg/injection, schedule: Q01DX009 (ip), vehicle: Klucel (hydroxypropylcellulose) (HPC)): 109 % of control | T/C (dose: 12.5 mg/kg/injection, schedule: Q04DX003 (ip), vehicle: Klucel (hydroxypropylcellulose) (HPC)): 102 % of control | T/C (dose: 25.0 mg/kg/injection, schedule: Q01DX009 (ip), vehicle: Klucel (hydroxypropylcellulose) (HPC)): 106 % of control and 116 % of control | T/C (dose: 25.0 mg/kg/injection, schedule: Q04DX003 (ip), vehicle: Klucel (hydroxypropylcellulose) (HPC)): 95 % of control | T/C (dose: 50.0 mg/kg/injection, schedule: Q01DX009 (ip), vehicle: Klucel (hydroxypropylcellulose) (HPC)): 122 % of control | T/C (dose: 50.0 mg/kg/injection, schedule: Q04DX003 (ip), vehicle: Klucel (hydroxypropylcellulose) (HPC)): 108 % of control | T/C (dose: 60.0 mg/kg/injection, schedule: Q01DX009 (ip), vehicle: Klucel (hydroxypropylcellulose) (HPC)): 122 % of control | T/C [8]: 114 % of control | T/C [13]: 114 % of control | T/C [14]: 92 % of control

COC(=O)C1C2OC(C3OC32)C1C(=O)OC (centres undefined)
T/C [15]: 103 % of control | T/C [16]: 104 % of control | T/C [17]: 95 % of control

COc1ccc(C2OC23CCCc2ccccc2C3=O)cc1 (centres undefined)
T/C [8]: 95 % of control | T/C [9]: 97 % of control | T/C [10]: 89 % of control

COC(=O)NC1C(C)C=CC(C)C1I (centres undefined)
T/C (dose: 100.0 mg/kg/injection, schedule: Q01DX009 (ip), vehicle: other): 109 % of control | T/C [3]: 104 % of control | T/C (dose: 200.0 mg/kg/injection, schedule: Q01DX009 (ip), vehicle: other): 96 % of control | T/C [4]: 98 % of control | T/C (dose: 400.0 mg/kg/injection, schedule: Q01DX009 (ip), vehicle: other): 113 % of control | T/C [5]: 97 % of control

CCCCCCCCCCCCCCCC(O)S(=O)(=O)O (centres undefined)
T/C [3]: 92 % of control | T/C [4]: 97 % of control

[Mn+2].[NH-]CC(=O)O.[NH-]CC(=O)O
T/C [6]: 96 % of control

CCC1(CC2CCCN(C)C2)c2ccccc2Sc2ccccc21 (centres undefined)
T/C (dose: 8.0 mg/kg/injection, schedule: Q01DX015 (ip), vehicle: carboxymethylcellulose (CMC)): 105 % of control | T/C (dose: 16.0 mg/kg/injection, schedule: Q01DX015 (ip), vehicle: carboxymethylcellulose (CMC)): 94 % of control | T/C (dose: 32.0 mg/kg/injection, schedule: Q01DX015 (ip), vehicle: carboxymethylcellulose (CMC)): 91 % of control | T/C (dose: 64.0 mg/kg/injection, schedule: Q01DX015 (ip), vehicle: carboxymethylcellulose (CMC)): 103 % of control and 110 % of control

CCOC(OCC)n1ncnc1NC(=S)NCc1ccccc1
T/C (dose: 50.0 mg/kg/injection, schedule: Q04DX003 (ip), vehicle: saline): 100 % of control | T/C (dose: 100.0 mg/kg/injection, schedule: Q04DX003 (ip), vehicle: saline): 100 % of control | T/C (dose: 200.0 mg/kg/injection, schedule: Q04DX003 (ip), vehicle: saline): 97 % of control

O=S(CCCl)c1ccccc1 (centres undefined)
T/C [8]: 98 % of control | T/C [9]: 98 % of control | T/C [10]: 98 % of control
